Where two headings read alike, the source gives them in different places.
Legend:
[1] = Acute toxicity, various dosage pathways, 7-day lethality, LD50 by Litchfield-Wilcoxon; assay type: in vivo, ICR-JCL mice; conditions: in vivo, read-out: LD50 value (95% confidence limit)
Description: (§1) The acute toxicity of the present substance was investigated in various dosage pathways by the use of Wister rats and ICR-JCL mice. For the peroral or endermic dosage, the present substance was dissolved in a distilled water and the resulting solution was used. For the other dosages, the present substance was dissolved in a physiological salt solution and the resulting solution was dosed with a stomach conductor or an injector. In each dosage, a determined amount of the substance was regulated and properly dosed.
(§2) After the dosage, the expression of toxicopathy was continuously observed, and the lethality with the lapse of time for 7 days was measured and the value of LDSO was obtained therefrom. Both the tested animals as living and the tested animals as died were dissected for observation. LD50 was calculated on the basis of Litchfield-Wilcoxon figure-calculation method.

[2] = tested on: ICR-JCL mice; assay: as above; assay type: in vivo; conditions: mice
Description: as §1, §2

[3] = tested on: Wister rats; assay: as above; assay type: in vivo; conditions: rats
Description: as §1, §2

[4] = tested on: guinea pigs; assay: Sensitization, maximization test by Magnusson and Kligman; assay type: in vivo; conditions: challenge on day 21, sealed 24 hours
Description: This was tested in accordance with a maximization test by Magnusson B. and Kligman, A.M. The test is as follows:
Twenty guinea pigs were prepared for the test, ten being for the induction and the other ten being for the control in the challenge. The suprascapular part of the guinea pig was clipped and shaved in the area of 4cm x 6cm, and the following three pairs of hypodermic injections (a), (b) and (c) were imparted simultaneously to both the right and left parts as being symmetrical about the median line. • (a) Each 0.05ml of FCA to two points in both the right and left parts, totalling O.lml in all. • (b) Each 0.05ml of the test substance to two points in both the right and left parts, in the form of an aqueous solution (content of test substance: 10X). • (c) Each 0.05ml of FCA as containing the test substance emulsion to two points in both the right and left parts.
After one week from the hypodermic injection, the suprascapular part was again clipped and vaseline containing 10X of sodium laurylsulfate was applied thereover thereby to cause a slight inflammation on the applied part. By this treatment, the sensitization was intensified. Next, the test substance was applied to this part, which was thereafter airtightly sealed. […]

[5] = at the dosages of Table-1, 7 days

For COC1=C(OC)C(=O)C(CC=C(C)CCC=C(C)CCC=C(C)CCC=C(C)CCC=C(C)CCC=C(C)CCC=C(C)CCC=C(C)CCC=C(C)CCC=C(C)C)=C(C)C1=O [ubiquinone-10], the LD50 at 168 h ([1]; mouse, im, mice (male, female), Intramuscular) was 500 mg/kg, the LD50 at 168 h ([1]; mouse, ip, mice (male, female), Intra-abdominal) was 1500 mg/kg and the LD50 at 168 h ([1]; mouse, po, mice (male, female), Peroral) was 4000 mg/kg. It also gave an LD50 at 168 h ([1]; mouse, sc, mice (male, female), Hypodermic) of 500 mg/kg, an LD50 at 168 h ([1]; mouse, mice (male, female), Endermic) of 4000 mg/kg and an LD50 at 168 h ([1]; mouse, mice (male, female), Intravenous) of 250 mg/kg. It also gave an LD50 at 168 h ([1]; rat, im, rats (male, female), Intramuscular) of 500 mg/kg, an LD50 at 168 h ([1]; rat, ip, rats (male, female), Intra-abdominal) of 1500 mg/kg and an LD50 at 168 h ([1]; rat, po, rats (male, female), Peroral) of 4000 mg/kg. The LD50 at 168 h ([1]; rat, sc, rats (male, female), Hypodermic) was 500 mg/kg, the LD50 at 168 h ([1]; rat, rats (male, female), Endermic) was 4000 mg/kg and the LD50 at 168 h ([1]; rat, rats (male, female), Intravenous) was 250 mg/kg. For the same compound, the “general condition, weight, amount of feed intake, observation in dissection” value ([2]; at the dosages of Table-1) was “no abnormal change was found”, the lethality [2, 5] was “no animals as tested died” and the “general condition, weight, amount of feed intake, observation in dissection” value ([3]; at the dosages of Table-1) was “no abnormal change was found”. The lethality [3, 5] was “no animals as tested died” and the sensitization reaction [4] was “No sensitization reaction”.
